Several values for one entry are separate records, joined by “and”; a condition that tells them apart may be missing. Identical values can stand only once. Like-named read-outs stand apart in the source and are kept apart here.
Experiments:
[1] = format: in vivo, CB57 SCID mice
Protocol: (§1) Toxicity studies were done in nontumor bearing CB-17 SCID mice (Taconic Biosciences). […] Each arm had n = 10 mice (5 male, 5 female mice). […] The vehicle group received an equal volume of saline (placebo). Weights were obtained twice weekly and mice were monitored daily for signs of toxicity. […] On target hematological and marrow toxicity which was evaluated by complete blood counts and marrow colony formation assay. An additional study was performed under identical conditions to evaluate additive dose effects. […] Each treatment group was composed of equal numbers of male and female mice to rule out gender-specific effects (n = 4 per treatment group per time point). Mice were followed for signs of acute toxicity for 2 weeks and 4 weeks before euthanasia. An additional group (n = 4) treated at 36 MBq/kg was euthanized after 72 h to assess early signs of toxicity by colony formation assays. This time course was chosen to best capture the nadir of bone marrow suppression. After euthanasia, blood was collected and femurs were dissected and processed for histopathology and bone marrow evaluation.
Su p p lemen t ary Fig u res
Supplementary Fi g u re 1 : Maximum tolerated dose finding studies for [211At]PT T adm inistered as 4
dose fractions given twice weekly in male and female CB57 SCID mice (n=3 per sex per dose level).
(1 picture or pasted object on this page, not shown here)

[2] = format: in vivo; conditions: CB57/BL6 mice; twice weekly, total of 4 dose fractions
Protocol: as §1
Supplementary Fi g u re 4: To le r a b ilit y studies to determine hematological and marrow toxicity of
[211At]PTT in CB57BL6 mice. a) Maximum tolerated dose finding studies fo r [211At]PTT administered
as 4 dose fractions given twice weekly in CB57BL6 mice. b) Complete blood counts assessed at 72 […]

[3] = Biodistribution in healthy CB57/BL6 mice with estimated human dosimetry (OLINDA/EXM); format: in vivo
Protocol: Using female mice was justified due to the lack of sex-related differences observed from initial dose-finding studies. […] At various time points mice were euthanized and tissues were harvested, weighed, and assayed for radioactivity by gamma counter. Decay corrected data is presented as percent injected dose per gram of tissue (%ID/g). […]
(§2) Animal studies were performed in female mice due to the lack of sex-related differences for [^211At]PTT tolerability from initial dose response studies performed in female and male mice. Female mice were chosen due to their underlying behavior towards other study subjects that reduced nonstudy-related causes for decreased wellness. Pre-clinical efficacy studies were performed through “single mouse testing” to more closely recapitulate a clinical trial. […] Number size for treatment groups was determined by model tumor growth reproducibility, which was previously shown to have less than 5% normal variation with at least two animals. Statistical tests for tumor response and event-free survival (EFS) were performed as a grouped analysis that included all tumor models treated at each respective dose level (n = 2 per model per dose level). Statistical differences between treatment groups for tumor response was performed by paired-model T-test that compared reduction in tumor volume for the 36 MBq/kg dose level vs. 24 MBq/kg or 12 MBq/kg. Event free survival was measured by area over the curve method to quantify time to event, which was set as tumor growth exceeding 2 cm[3],[19]. Differences in EFS were tested across all treated models for each respective dose level, and against untreated controls, by paired-model ANOVA analysis. Associations of drug target expression and response were performed by linear regression analysis of EFS and PARP1 mRNA expression. Genetic signatures were visually presented as a function of EFS and no statistical tests were applied. Blood and marrow toxicity studies were performed with n = 5 sample sizes and powered to detect >20% differences between untreated controls and treated animals. Results were tested for significance by one-way ANOVA comparison from untreated controls. Marrow colony formation assays were performed in replicates of 2 for each mouse subject, dependent on marrow isolation, and all replicates are included in final analyses. Statistical analysis was performed by ordinary one-way ANOVA comparison between the mean of control and test groups. Biodistribution studies were performed with n = 3 mice per time-point. Human dosimetry was calculated using OLINDA/EXM v1.1 software by fitting time activity curves for biodistribution data in a healthy mouse model. Tumor dosimetry was calculated by OLINDA/EXM v1.1 by fitting time activity curves for NB-EBC1 tumors from biodistribution data. All statistical analyses were performed in GraphPad Prism version 9.3.1 unless indicated otherwise.

[4] = system: NB-EBC1x tumor; assay: Biodistribution, autoradiography and tumor dosimetry in NB-EBC1x tumor-bearing mice; format: in vivo, female SCID CB17 mice; conditions: for %Injected Dose/gram, tumor: NB-EBC1 tumor, single mouse
Protocol: At various time points mice were euthanized and tissues were harvested, weighed, and assayed for radioactivity by gamma counter. Decay corrected data presented as percent injected dose per gram of tissue (%ID/g). Human dosimetry was calculated using OLINDA/EXM software by fitting time activity curves for biodistribution data. Tissue autoradiography was performed by freezing excised tumors at 1 h postinjection of each respective treatment. One tumor was collected for each treatment group. Tumors were cryosectioned (Leica Cryotome) at a thickness of 20 µm. Each section was collected with a 200 µm gap and a total of three sections were collected for each tumor. Sections were then exposed to a phosphorfilm for 60 h and films were read on a Cyclone Plus phosphorimager (Perkin Elmer). Experimental conditions have been included in the Supplementary Methods.
as §2

[5] = 1-year-old, from CB57/BL6 mouse biodistribution
[6] = 5-year-old, from CB57/BL6 mouse biodistribution

## O=C1NCCn2c(-c3ccc([211At])cc3)nc3cccc1c32 [[^211At]PTT, Astatine-211-parthanatine]
[1]; intra-peritoneal, twice weekly, total of 4 dose fractions
  maximum tolerated dose (MTD): 36 MBq/kg
[1]; x4 fractionated regimen, SCID PDX mice
  maximum tolerated dose (MTD): 36 MBq/kg/fraction
[2]
  MTD: 48 MBq/kg/fraction
[3]; 0.02 kg mouse, 36 MBq/kg
  marrow dose per dose fraction: approximately 2.5 Gy
[3]; [5]
  Estimated human dosimetry, Adrenals: 0.005 Gy per MBq/kg
  Estimated human dosimetry, Brain: 0.002 Gy per MBq/kg
  Estimated human dosimetry, Breasts: 0.005 Gy per MBq/kg
  Estimated human dosimetry, Gallbladder: 0.005 Gy per MBq/kg
  Estimated human dosimetry, Heart: 0.017 Gy per MBq/kg and 0.026 Gy per MBq/kg and 0.020 Gy per MBq/kg
  Estimated human dosimetry, Kidneys: 0.021 Gy per MBq/kg and 0.034 Gy per MBq/kg and 0.028 Gy per MBq/kg
  Estimated human dosimetry, Left Colon: 0.005 Gy per MBq/kg and 0.006 Gy per MBq/kg
  Estimated human dosimetry, Liver: 0.019 Gy per MBq/kg and 0.018 Gy per MBq/kg and 0.033 Gy per MBq/kg
  Estimated human dosimetry, Muscle: 0.008 Gy per MBq/kg and 0.016 Gy per MBq/kg
  Estimated human dosimetry, Ovaries: 0.005 Gy per MBq/kg
  Estimated human dosimetry, Red Marrow: 0.070 Gy per MBq/kg and 0.091 Gy per MBq/kg and 0.065 Gy per MBq/kg and 0.073 Gy per MBq/kg
  Estimated human dosimetry, Right Colon: 0.005 Gy per MBq/kg and 0.006 Gy per MBq/kg
  Estimated human dosimetry, Skin: 0.005 Gy per MBq/kg
  Estimated human dosimetry, Small Intestine: 0.005 Gy per MBq/kg
  Estimated human dosimetry, Spleen: 0.061 Gy per MBq/kg and 0.070 Gy per MBq/kg and 0.084 Gy per MBq/kg and 0.051 Gy per MBq/kg
  Estimated human dosimetry, Stomach: 0.005 Gy per MBq/kg
  Estimated human dosimetry, Testes: 0.005 Gy per MBq/kg
  Estimated human dosimetry, Thymus: 0.005 Gy per MBq/kg
  Estimated human dosimetry, Total Body: 0.009 Gy per MBq/kg and 0.010 Gy per MBq/kg and 0.011 Gy per MBq/kg
  Estimated human dosimetry, Urinary Bladder: 0.005 Gy per MBq/kg
  Estimated human dosimetry, Uterus: 0.005 Gy per MBq/kg
[3]; [6]
  Estimated human dosimetry, Adrenals: 0.004 Gy per MBq/kg and 0.005 Gy per MBq/kg
  Estimated human dosimetry, Brain: 0.002 Gy per MBq/kg and 0.001 Gy per MBq/kg
  Estimated human dosimetry, Breasts: 0.004 Gy per MBq/kg and 0.005 Gy per MBq/kg
  Estimated human dosimetry, Gallbladder: 0.004 Gy per MBq/kg and 0.005 Gy per MBq/kg
  Estimated human dosimetry, Heart: 0.015 Gy per MBq/kg and 0.016 Gy per MBq/kg and 0.024 Gy per MBq/kg and 0.018 Gy per MBq/kg
  Estimated human dosimetry, Kidneys: 0.018 Gy per MBq/kg and 0.029 Gy per MBq/kg and 0.023 Gy per MBq/kg
  Estimated human dosimetry, Left Colon: 0.004 Gy per MBq/kg and 0.005 Gy per MBq/kg
  Estimated human dosimetry, Ovaries: 0.004 Gy per MBq/kg and 0.005 Gy per MBq/kg
  Estimated human dosimetry, Red Marrow: 0.074 Gy per MBq/kg and 0.069 Gy per MBq/kg and 0.093 Gy per MBq/kg and 0.066 Gy per MBq/kg
  Estimated human dosimetry, Right Colon: 0.004 Gy per MBq/kg and 0.005 Gy per MBq/kg
  Estimated human dosimetry, Skin: 0.004 Gy per MBq/kg and 0.005 Gy per MBq/kg
  Estimated human dosimetry, Small Intestine: 0.004 Gy per MBq/kg and 0.005 Gy per MBq/kg
  Estimated human dosimetry, Spleen: 0.055 Gy per MBq/kg and 0.063 Gy per MBq/kg and 0.076 Gy per MBq/kg and 0.049 Gy per MBq/kg
  Estimated human dosimetry, Stomach: 0.004 Gy per MBq/kg and 0.005 Gy per MBq/kg
  Estimated human dosimetry, Testes: 0.004 Gy per MBq/kg and 0.005 Gy per MBq/kg
  Estimated human dosimetry, Thymus: 0.004 Gy per MBq/kg and 0.005 Gy per MBq/kg
  Estimated human dosimetry, Total Body: 0.009 Gy per MBq/kg and 0.011 Gy per MBq/kg
  Estimated human dosimetry, Urinary Bladder: 0.004 Gy per MBq/kg and 0.005 Gy per MBq/kg
  Estimated human dosimetry, Uterus: 0.004 Gy per MBq/kg and 0.005 Gy per MBq/kg
[3]; derived from the mouse model
  predicted kidney dose scaled for an adult: 0.34–0.44 mGy/MBq
[3]; extrapolated from mouse biodistribution to a 1-year-old human phantom
  predicted kidney dose: 0.026 Gy per MBq/kg
[4]; 1-year-old phantom, derived from NB-EBC1 tumor-bearing mouse model
  average tumor dose: 0.060 Gy per MBq/kg
[4]; 1 h
  thyroid uptake with co-administration of potassium iodide: partially blocked
[4]; NB-EBC1 tumor-bearing CB57 SCID mice, three values
  Absorbed Dose, Tumor: 4.5716 cGy/MBq/kg and 5.9806 cGy/MBq/kg and 7.417 cGy/MBq/kg
[4]; time point 0.5
  %Injected Dose/gram, tumor: 2.4065 %ID/g and 3.551 %ID/g and 6.66 %ID/g
[4]; time point 1
  %Injected Dose/gram, tumor: 8.705 %ID/g and 13.3276 %ID/g and 24.86 %ID/g
[4]; time point 6
  %Injected Dose/gram, tumor: 7.986 %ID/g and 8.236 %ID/g and 8.192 %ID/g
[4]; time point 24
  %Injected Dose/gram, tumor: 0.008485 %ID/g and 1.144 %ID/g and 1.578 %ID/g
[4]; NB-EBC1 tumors, 1 h postinjection
  tumor penetrance by ex-vivo autoradiography: high tumor penetrance
[4]; NB-EBC1x tumor-bearing mouse model
  tumor dosimetry (estimated): 6 cGy/MBq/kg
[4]; NB-EBC1x, after 4 dose fractions of 36 MBq/kg
  cumulative absorbed dose to tumor: 8.6 Gy
[4]; NB-EBC1x, per 36 MBq/kg dose
  absorbed dose to tumor per dose fraction: 2.15 Gy
[4]; seen in mice in the present study
  biological half-life in tumor: 5.1 hr

Reference: publication PMC9671962 (Communications Biology, 2022)
